{"source": "paper PMC10783034", "about": "“Pharmacokinetic and pharmacodynamic evaluation of the atypical tetracyclines chelocardin and amidochelocardin in murine infection models” (Microbiology Spectrum, 2023)", "key": {"[1]": {"tested_on": "E. coli C175-94", "assay": "Ascending urinary tract infection model in OF-1 mice", "format": "in vivo", "conditions": "for bacterial burden in urine: CHD/CDCHD 12 mg/kg SC BID on day 1 and 2 post-inoculation; for bacterial burden in urine / bacterial burden in kidneys / bacterial burden in the bladder: day 3, vs vehicle; for animals with sterile kidneys / bacterial burden in kidneys / bacterial burden in the bladder: CHD/CDCHD 12 mg/kg SC BID, gentamicin 100 mg/kg SC BID; for animals with sterile kidneys: control animals 23.8%", "procedure": "(§1) The model was conducted as described previously ([27], [60]). In brief, n = 21 animals were used per group in the main study, and n = 3 animals per group in satellite groups for histopathological analysis. Three days before the start of the study and during the study, mice had free access to 5% glucose as drinking water. Fresh overnight colonies of E. coli from a 5% horse blood agar plate were suspended in PBS pH 7.4 to approximately 10^9 cfu/mL. Approximately 1 hour before inoculation, mice were treated orally with […] Nurofen (20 mg ibuprofen/mL corresponding to approximately 30 mg/kg) as a pain relief. Urine was removed from the bladder by gently pressing the abdomen and mice were anaesthetized with 0.15 mL Zoletil mix SC. Thereafter, the mice were inoculated. A syringe with a catheter, containing the bacterial suspension was inserted via the urethra into the bladder and 50 µL of the inoculum was slowly injected into the bladder. Hereafter, the mouse was placed in the cage and kept in a warming cabinet until fully awake (approximately 4 hours). The mice were treated with CHD (12 mg/kg SC BID), CDCHD (12 mg/kg SC BID), gentamicin (100 mg/kg SC BID), or vehicle BID (2nd dose was administered approximately 6 hours after the 1st dose on each day) on day 1, that is, first dose around 24 hours post-infection, and day 2 post-inoculation. The mice were observed during the study and scored based on their behavior and clinical signs. Clinical scoring comprised assessment of piloerection in the skin, activity (movement, curiosity), and appearance of eyes. The scoring range comprised 0–4. In our model, a maximum score of 1; thus, only mild discomfort was observed. On day 3 post-inoculation and after sampling urine, mice were euthanized by cervical dislocation, and bladder and kidneys were removed from 21 mice in each treatment group aseptically for cfu determination. The bladder and kidneys were stored at −80°C and later homogenized in 0.5 or 1 mL saline, respectively. Colony counts of urine were determined immediately. From the three additional mice in each treatment group (satellite groups), urine and plasma were sampled and frozen at −80°C, and bladders, kidneys, and liver were collected in 4% buffered formalin. Cfu was determined in urine samples within 2–3 hours after sampling. Frozen organs were thawed and homogenized with steel beads using a tissue lyser. All samples, urine, kidney, and bladder, were 10-fold diluted in saline and 20 µL spots were applied on blue agar plates in duplicates. In addition, undiluted samples of urine (2–100 μL depending on the available amount of urine) were spread on a separate agar plate to determine the colony counts at the lowest possible detection level. All agar plates were incubated for 18–22 hours at 35°C in ambient air.\nFor the neutropenic thigh infection model with E. coli ATCC 25922, the thighs were regarded as two independent infection sites throughout the experiment. For statistical analysis, individual thighs (left and right) were treated as separate samples although these were not completely independent values. For the neutropenic thigh infection model with K. pneumoniae ATCC 43816, the individual thighs (left and right) were treated as one sample. For the efficacy models, the non-parametric Kruskal-Wallis test was used with GraphPad Prism 9.4.1. For the ascending urinary tract infection model, an ordinary one-way ANOVA with Dunnett’s multiple comparison test was used with GraphPad Prism 9.4.1."}, "[2]": {"assay": "Histopathological analysis of kidneys and bladder in the ascending urinary tract infection model (satellite groups)", "format": "in vivo, mice", "set-up": "key to histopathological score Pelvis: 1 = mild; 2 = moderate; 3 = severe; histopathological score Papilla / histopathological score Bladder: scale not given here", "conditions": "for histopathological findings in bladder / histopathological findings in kidneys: infected mice, CHD/CDCHD 12 mg/kg SC BID, gentamicin 100 mg/kg SC BID", "procedure": "as §1\nApproximately 3 µm thick sections of formalin-fixed, paraffin-embedded samples of liver and kidney were analyzed blinded, and randomized to the experimental groups by a trained veterinarian. […] Kidneys were analyzed for changes in the glomeruli (not found), tubular dilation (1 = mild or up to 20% of tubuli affected, 2 = moderate or 25-40% of tubuli affected, 3 = severe 50% or more), and inflammatory infiltrate in the pelvis (1 = mild, 2 = moderate, 3 = severe)."}, "[3]": {"tested_on": "E. coli C175-94", "assay": "MIC determination", "format": "cell-based", "conditions": "MHB medium", "procedure": "(§2) The assay was conducted as described previously ([54]) with the following modifications. The MIC was tested against the K. pneumoniae strain ATCC 43816 in an MHB (not cation-adjusted) medium. CHD and CDCHD were tested in concentrations ranging from 0.078 to 10 µg/mL. Moreover, the MIC was determined for the following strains: K. pneumoniae DSM-30104, E. faecium DSM-20477, S. aureus DSM-346, P. aeruginosa DSM-11128, A. baumannii DSM-30008, E. aerogenes DSM-30053, E. coli ATCC 25922, and E. coli C175-94. All strains were grown in MHB medium, except for E. faecium, which was grown in TSB. CHD, epi-CDH, and CDCHD were tested in concentrations ranging from 0.125 to 64 µg/mL as described previously ([19])."}, "[4]": {"tested_on": "K. pneumoniae DSM-30104", "assay": "MIC determination", "format": "cell-based", "conditions": "MHB medium", "procedure": "as §2"}, "[5]": {"tested_on": "E. coli ATCC 25922", "assay": "MIC determination", "format": "cell-based", "conditions": "MHB medium", "procedure": "as §2"}, "[6]": {"tested_on": "E. faecium DSM-20477", "assay": "MIC determination", "format": "cell-based", "conditions": "TSB medium", "procedure": "as §2"}, "[7]": {"tested_on": "P. aeruginosa DSM-11128", "assay": "MIC determination", "format": "cell-based", "conditions": "MHB medium", "procedure": "as §2"}, "[8]": {"tested_on": "A. baumannii DSM-30008", "assay": "MIC determination", "format": "cell-based", "conditions": "MHB medium", "procedure": "as §2"}, "[9]": {"tested_on": "E. aerogenes DSM-30053", "assay": "MIC determination", "format": "cell-based", "conditions": "MHB medium", "procedure": "as §2"}, "[10]": {"tested_on": "S. aureus DSM-346", "assay": "MIC determination", "format": "cell-based", "conditions": "MHB medium", "procedure": "as §2"}}, "note": "Where “and” joins values, the source holds several entries; their conditions need not be identical. Equal entries are not always repeated."}
{"smiles": "Cc1ccc2c(C)c3c(c(O)c2c1O)C(=O)C1(O)C(=O)C(C(N)=O)=C(O)C(N)C1C3", "note": "(stereo not drawn) [CDCHD, 2-carboxamido-2-deacetyl-chelocardin]", "values": [{"measurement": "bacterial burden in urine", "setting": "[1]", "value": "reduced bacterial burden in urine significantly"}, {"measurement": "animals with sterile kidneys", "setting": "[1]", "value": 61.9, "unit": "%"}, {"measurement": "bacterial burden in kidneys", "setting": "[1]", "value": "strong and significant reduction"}, {"measurement": "bacterial burden in the bladder", "setting": "[1]", "value": "significant reduction compared to vehicle control"}, {"measurement": "histopathological score Bladder", "setting": "[2]; animal No. 1", "value": 0}, {"measurement": "histopathological score Glomeruli", "setting": "[2]; animal No. 1", "value": 0}, {"measurement": "histopathological score Papilla", "setting": "[2]; animal No. 1", "value": 0}, {"measurement": "histopathological score Pelvis", "setting": "[2]; animal No. 1", "value": 0}, {"measurement": "histopathological score Tubuli", "setting": "[2]; animal No. 1", "value": "2 (2 = moderate or 25-40% of tubuli affected)"}, {"measurement": "histopathological score Bladder", "setting": "[2]; animal No. 2", "value": 0}, {"measurement": "histopathological score Glomeruli", "setting": "[2]; animal No. 2", "value": 0}, {"measurement": "histopathological score Papilla", "setting": "[2]; animal No. 2", "value": 0}, {"measurement": "histopathological score Pelvis", "setting": "[2]; animal No. 2", "value": 1}, {"measurement": "histopathological score Tubuli", "setting": "[2]; animal No. 2", "value": "2 (2 = moderate or 25-40% of tubuli affected)"}, {"measurement": "histopathological score Bladder", "setting": "[2]; animal No. 3", "value": 0}, {"measurement": "histopathological score Glomeruli", "setting": "[2]; animal No. 3", "value": 0}, {"measurement": "histopathological score Papilla", "setting": "[2]; animal No. 3", "value": 1}, {"measurement": "histopathological score Pelvis", "setting": "[2]; animal No. 3", "value": 0}, {"measurement": "histopathological score Tubuli", "setting": "[2]; animal No. 3", "value": "1 (1 = mild or up to 20% of tubuli affected)"}, {"measurement": "histopathological findings in bladder", "setting": "[2]", "value": "did not show any significant alterations"}, {"measurement": "histopathological findings in kidneys", "setting": "[2]", "value": "a moderate tubulus dilation (resulting in moderate or 20%–40% of tubuli affected) and protein casts"}, {"measurement": "MIC", "setting": "[3]", "value": "2 to 4", "unit": "µg/mL"}, {"measurement": "MIC", "setting": "[4]", "value": 1, "unit": "µg/mL"}, {"measurement": "MIC", "setting": "[5]", "value": "2 µg/ml and ~ 2 µg/ml"}, {"measurement": "MIC", "setting": "[6]", "value": 2, "unit": "µg/mL"}, {"measurement": "MIC", "setting": "[7]", "value": 16, "unit": "µg/mL"}, {"measurement": "MIC", "setting": "[8]", "value": 8, "unit": "µg/mL"}, {"measurement": "MIC", "setting": "[9]", "value": 8, "unit": "µg/mL"}, {"measurement": "MIC", "setting": "[10]", "value": 2, "unit": "µg/mL"}]}
{"smiles": "CC(=O)C1=C(O)[C@H](N)[C@@H]2Cc3c(c(O)c4c(O)c(C)ccc4c3C)C(=O)[C@]2(O)C1=O", "note": "[CHD, chelocardin]", "values": [{"measurement": "bacterial burden in urine", "setting": "[1]", "value": "reduced bacterial burden in urine significantly"}, {"measurement": "animals with sterile kidneys", "setting": "[1]", "value": 38.1, "unit": "%"}, {"measurement": "bacterial burden in kidneys", "setting": "[1]", "value": "slight, non-significant effect"}, {"measurement": "bacterial burden in the bladder", "setting": "[1]", "value": "significant reduction compared to vehicle control"}, {"measurement": "histopathological score Glomeruli", "setting": "[2]; animal No. 1", "value": 0}, {"measurement": "histopathological score Papilla", "setting": "[2]; animal No. 1", "value": 2}, {"measurement": "histopathological score Pelvis", "setting": "[2]; animal No. 1", "value": 0}, {"measurement": "histopathological score Tubuli", "setting": "[2]; animal No. 1", "value": "3 (3 = severe 50% or more)"}, {"measurement": "histopathological score Bladder", "setting": "[2]; animal No. 2", "value": "- 1 1"}, {"measurement": "histopathological score Glomeruli", "setting": "[2]; animal No. 2", "value": 0}, {"measurement": "histopathological score Papilla", "setting": "[2]; animal No. 2", "value": 2}, {"measurement": "histopathological score Pelvis", "setting": "[2]; animal No. 2", "value": 1}, {"measurement": "histopathological score Tubuli", "setting": "[2]; animal No. 2", "value": "3 (3 = severe 50% or more)"}, {"measurement": "histopathological score Bladder", "setting": "[2]; animal No. 3", "value": "- 1 1"}, {"measurement": "histopathological score Glomeruli", "setting": "[2]; animal No. 3", "value": 0}, {"measurement": "histopathological score Papilla", "setting": "[2]; animal No. 3", "value": 0}, {"measurement": "histopathological score Pelvis", "setting": "[2]; animal No. 3", "value": 2}, {"measurement": "histopathological score Tubuli", "setting": "[2]; animal No. 3", "value": "1 (1 = mild or up to 20% of tubuli affected)"}, {"measurement": "histopathological findings in bladder", "setting": "[2]", "value": "mild, focal, submucosal inflammatory aggregates"}, {"measurement": "histopathological findings in kidneys", "setting": "[2]", "value": "moderate tubulus degeneration with vacuolated cytoplasm, accumulation of hyaline droplets, protein casts, and a mild to moderate accumulation of inflammatory cells"}, {"measurement": "MIC", "setting": "[3]", "value": 2, "unit": "µg/mL"}, {"measurement": "MIC", "setting": "[4]", "value": "2 to 4", "unit": "µg/mL"}, {"measurement": "MIC", "setting": "[5]", "value": "2 µg/ml and ~ 2 µg/ml"}, {"measurement": "MIC", "setting": "[6]", "value": 4, "unit": "µg/mL"}, {"measurement": "MIC", "setting": "[7]", "value": "> 64", "unit": "µg/mL"}, {"measurement": "MIC", "setting": "[8]", "value": 16, "unit": "µg/mL"}, {"measurement": "MIC", "setting": "[9]", "value": 32, "unit": "µg/mL"}, {"measurement": "MIC", "setting": "[10]", "value": 4, "unit": "µg/mL"}]}
